Data reported in PubChem BioAssay (NCI).
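Five concentrations, 48 hours, 96-well plates. The concentration for 50% growth inhibition is given as GI50. TGI denotes the concentration required for complete inhibition of growth.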

Columns and labels:
Test in all cases: NCI tumour cell line growth inhibition, 48 h
SF-295 CNS = tested on: SF-295 CNS
SK-MEL-2 melanoma = tested on: SK-MEL-2 melanoma
MOLT-4 leukemia = tested on: MOLT-4 leukemia
SNB-19 CNS = tested on: SNB-19 CNS
OVCAR-4 ovarian = tested on: OVCAR-4 ovarian
OVCAR-5 ovarian = tested on: OVCAR-5 ovarian
CCRF-CEM leukemia = tested on: CCRF-CEM leukemia
SK-MEL-5 melanoma = tested on: SK-MEL-5 melanoma
UO-31 renal = tested on: UO-31 renal
M14 melanoma = tested on: M14 melanoma
MALME-3M melanoma = tested on: MALME-3M melanoma

Which TGI (SF-295 CNS) does the source give for `CCN(CCO)C(=O)C1(c2ccccc2)CCCCC1` here?
The TGI was > 10 µM.

And the TGI (SK-MEL-2 melanoma)?
Its TGI is > 10 µM.

And the TGI (MOLT-4 leukemia)?
Its TGI is > 10 µM.

And the TGI (SNB-19 CNS)?
Its TGI is > 10 µM.

What about the TGI (OVCAR-4 ovarian) of the same molecule?
Its TGI is > 10 µM.

And the TGI (OVCAR-5 ovarian)?
Its TGI is > 10 µM.

What about the TGI (CCRF-CEM leukemia) of the same molecule?
Its TGI is > 10 µM.

And the TGI (SK-MEL-5 melanoma)?
The TGI was > 10 µM.

And the TGI (UO-31 renal)?
Its TGI is > 10 µM.

And the TGI (M14 melanoma)?
Its TGI is > 10 µM.

And the TGI (MALME-3M melanoma)?
The TGI was > 10 µM.

Which results are given for `CCCCC(=O)c1ccc2ccccc2c1O`?
TGI (SF-295 CNS): > 100 µM; TGI (SK-MEL-2 melanoma): > 100 µM; TGI (MOLT-4 leukemia): > 100 µM; TGI (SNB-19 CNS): > 100 µM; TGI (OVCAR-4 ovarian): > 100 µM; TGI (CCRF-CEM leukemia): > 100 µM; TGI (SK-MEL-5 melanoma): > 100 µM; TGI (UO-31 renal): > 100 µM; TGI (M14 melanoma): > 100 µM

What does the source list for `CCOC(=O)NC(=O)c1cn(CCNCCO)c(=O)[nH]c1=O`?
TGI (SF-295 CNS): > 100 µM; TGI (SK-MEL-2 melanoma): > 100 µM; TGI (MOLT-4 leukemia): > 100 µM; TGI (SNB-19 CNS): > 100 µM; TGI (OVCAR-4 ovarian): > 100 µM; TGI (OVCAR-5 ovarian): > 100 µM; TGI (CCRF-CEM leukemia): > 100 µM; TGI (SK-MEL-5 melanoma): > 100 µM; TGI (M14 melanoma): > 100 µM; TGI (MALME-3M melanoma): > 100 µM

For `CN(CCC(=O)O)C1=Nc2ccc(Cl)cc2C(c2ccccc2)=[N+]([O-])C1`, which TGI (SF-295 CNS) is on record?
The TGI was > 100 µM.

What about the TGI (SK-MEL-2 melanoma) of the same molecule?
Its TGI is > 100 µM.

What about the TGI (MOLT-4 leukemia) of the same molecule?
The TGI was > 100 µM.

And the TGI (SNB-19 CNS)?
Its TGI is > 100 µM.

And the TGI (OVCAR-4 ovarian)?
Its TGI is > 100 µM.

And the TGI (OVCAR-5 ovarian)?
Its TGI is > 100 µM.

What about the TGI (CCRF-CEM leukemia) of the same molecule?
The TGI was > 100 µM.

And the TGI (SK-MEL-5 melanoma)?
Its TGI is > 100 µM.

What about the TGI (UO-31 renal) of the same molecule?
Its TGI is > 100 µM.

What about the TGI (M14 melanoma) of the same molecule?
The TGI was > 100 µM.

What about the TGI (MALME-3M melanoma) of the same molecule?
Its TGI is > 100 µM.

Which GI50 (SF-295 CNS) does the source give for `OCCCNc1nc(=S)[nH]c2[nH]ncc12` here?
The GI50 was 49 µM.

What about the TGI (SF-295 CNS) of the same molecule?
Its TGI is > 100 µM.

What about the GI50 (SK-MEL-2 melanoma) of the same molecule?
Its GI50 is 53.2 µM.

What about the TGI (SK-MEL-2 melanoma) of the same molecule?
The TGI was > 100 µM.

And the GI50 (SNB-19 CNS)?
The GI50 was > 100 µM.

What about the TGI (SNB-19 CNS) of the same molecule?
The TGI was > 100 µM.

And the GI50 (OVCAR-4 ovarian)?
Its GI50 is 53.7 µM.

What about the TGI (OVCAR-4 ovarian) of the same molecule?
The TGI was > 100 µM.

And the GI50 (OVCAR-5 ovarian)?
Its GI50 is 45.8 µM.

What about the TGI (OVCAR-5 ovarian) of the same molecule?
Its TGI is > 100 µM.

What about the GI50 (CCRF-CEM leukemia) of the same molecule?
The GI50 was 34.7 µM.

What about the TGI (CCRF-CEM leukemia) of the same molecule?
The TGI was > 100 µM.

What about the GI50 (SK-MEL-5 melanoma) of the same molecule?
The GI50 was 31.3 µM.

And the TGI (SK-MEL-5 melanoma)?
The TGI was > 100 µM.

And the GI50 (UO-31 renal)?
The GI50 was 44.1 µM.

And the TGI (UO-31 renal)?
Its TGI is > 100 µM.

What about the GI50 (MALME-3M melanoma) of the same molecule?
Its GI50 is 48.3 µM.

And the TGI (MALME-3M melanoma)?
Its TGI is > 100 µM.

`[Cl-].[Rh+3].c1cnc2c(c1)ccc1cccnc12.c1cnc2c(c1)ccc1cccnc12.c1cnc2c(c1)ccc1cccnc12` was tested. Which TGI (SF-295 CNS) did it give?
The TGI was > 100 µM.

And the TGI (SK-MEL-2 melanoma)?
The TGI was > 100 µM.

And the TGI (MOLT-4 leukemia)?
The TGI was > 100 µM.

And the TGI (OVCAR-4 ovarian)?
The TGI was > 100 µM.

And the TGI (OVCAR-5 ovarian)?
Its TGI is > 100 µM.

And the TGI (CCRF-CEM leukemia)?
Its TGI is > 100 µM.

What about the TGI (SK-MEL-5 melanoma) of the same molecule?
The TGI was > 100 µM.

And the TGI (UO-31 renal)?
The TGI was > 100 µM.

What about the TGI (M14 melanoma) of the same molecule?
The TGI was 29 µM.

And the TGI (MALME-3M melanoma)?
Its TGI is > 100 µM.

Which TGI (SF-295 CNS) does the source give for `c1nc(N2CC2)c2cnn(C3CCCCO3)c2n1` (configuration not stated) here?
Its TGI is > 100 µM.

What about the TGI (SK-MEL-2 melanoma) of the same molecule?
The TGI was > 100 µM.

What about the TGI (MOLT-4 leukemia) of the same molecule?
Its TGI is > 100 µM.

And the TGI (SNB-19 CNS)?
Its TGI is > 100 µM.

What about the TGI (OVCAR-4 ovarian) of the same molecule?
The TGI was > 100 µM.

And the TGI (OVCAR-5 ovarian)?
Its TGI is > 100 µM.

And the TGI (CCRF-CEM leukemia)?
The TGI was > 100 µM.

And the TGI (SK-MEL-5 melanoma)?
The TGI was > 100 µM.

And the TGI (UO-31 renal)?
The TGI was > 100 µM.

What about the TGI (M14 melanoma) of the same molecule?
Its TGI is > 100 µM.

And the TGI (MALME-3M melanoma)?
The TGI was > 100 µM.

Which TGI (SK-MEL-2 melanoma) does the source give for `C[C@]12CC[C@H](OC(=O)Cc3ccc(N(CCCl)CCCl)cc3)CC1=CC[C@@H]1[C@@H]2CC[C@]2(C)C(=O)CC[C@@H]12` here?
Its TGI is > 100 µM.

And the TGI (MOLT-4 leukemia)?
Its TGI is > 100 µM.

What about the TGI (SNB-19 CNS) of the same molecule?
The TGI was > 100 µM.

What about the TGI (OVCAR-5 ovarian) of the same molecule?
Its TGI is > 100 µM.

And the TGI (SK-MEL-5 melanoma)?
The TGI was > 100 µM.

And the TGI (UO-31 renal)?
The TGI was > 100 µM.

What about the TGI (M14 melanoma) of the same molecule?
Its TGI is > 100 µM.

And the TGI (MALME-3M melanoma)?
The TGI was > 100 µM.

What does the source list for `O=S(=O)(O)C1=C2Sc3ccccc3N=C2c2ccccc2C1`?
TGI (SF-295 CNS): 26.7 µM; TGI (SK-MEL-2 melanoma): 35.7 µM; TGI (MOLT-4 leukemia): 29.1 µM; TGI (SNB-19 CNS): 51.6 µM; TGI (OVCAR-4 ovarian): 33.8 µM; TGI (OVCAR-5 ovarian): 34.5 µM; TGI (CCRF-CEM leukemia): 24.3 µM; TGI (SK-MEL-5 melanoma): 26.4 µM; TGI (UO-31 renal): 33.6 µM; TGI (M14 melanoma): 25.5 µM; TGI (MALME-3M melanoma): 30 µM

For `Ic1ccc2c(c1)N(c1ccccc1)c1cc(N=c3ccc4nc5ccc(I)cc5n(-c5ccccc5)c-4c3)ccc1N2`, which TGI (SF-295 CNS) is on record?
The TGI was > 100 µM.

What about the TGI (SK-MEL-2 melanoma) of the same molecule?
The TGI was > 100 µM.

And the TGI (MOLT-4 leukemia)?
The TGI was > 100 µM.

And the TGI (SNB-19 CNS)?
Its TGI is > 100 µM.

And the TGI (OVCAR-4 ovarian)?
Its TGI is > 100 µM.

What about the TGI (OVCAR-5 ovarian) of the same molecule?
Its TGI is > 100 µM.

And the TGI (CCRF-CEM leukemia)?
The TGI was > 100 µM.

What about the TGI (SK-MEL-5 melanoma) of the same molecule?
The TGI was > 100 µM.

What about the TGI (UO-31 renal) of the same molecule?
The TGI was > 100 µM.

What about the TGI (M14 melanoma) of the same molecule?
The TGI was 80.1 µM.

And the TGI (MALME-3M melanoma)?
The TGI was > 100 µM.

How did the TGI (SF-295 CNS) turn out when `C[N+](C)(C)CCCSc1nc2ccccc2[nH]1` was run?
Its TGI is > 100 µM.

And the TGI (SK-MEL-2 melanoma)?
The TGI was > 100 µM.

What about the TGI (MOLT-4 leukemia) of the same molecule?
The TGI was > 100 µM.

What about the TGI (SNB-19 CNS) of the same molecule?
The TGI was > 100 µM.

And the TGI (OVCAR-4 ovarian)?
The TGI was > 100 µM.

What about the TGI (OVCAR-5 ovarian) of the same molecule?
The TGI was > 100 µM.

And the TGI (CCRF-CEM leukemia)?
The TGI was > 100 µM.

And the TGI (SK-MEL-5 melanoma)?
The TGI was > 100 µM.

What about the TGI (UO-31 renal) of the same molecule?
Its TGI is > 100 µM.

What about the TGI (M14 melanoma) of the same molecule?
Its TGI is > 100 µM.

What about the TGI (MALME-3M melanoma) of the same molecule?
Its TGI is > 100 µM.

What does the source list for `CN1CCN(c2ccc3[nH]c(-c4cc(O)c5c(nc(CO)n5C)c4O)nc3n2)CC1`?
TGI (SF-295 CNS): > 100 µM; TGI (SK-MEL-2 melanoma): 51.7 µM; TGI (MOLT-4 leukemia): 48.2 µM; TGI (SNB-19 CNS): > 100 µM; TGI (OVCAR-4 ovarian): > 100 µM; TGI (OVCAR-5 ovarian): > 100 µM; TGI (CCRF-CEM leukemia): 58.6 µM; TGI (UO-31 renal): > 100 µM; TGI (M14 melanoma): > 100 µM; TGI (MALME-3M melanoma): 65.4 µM

With `CCCC/C=C/C/C=C/CCCCCCCCC(=O)OCC1CCCN2CCCCC12` (configuration not stated) as the molecule, how does the TGI (SF-295 CNS) read?
The TGI was > 100 µM.

And the TGI (SK-MEL-2 melanoma)?
The TGI was > 100 µM.

And the TGI (MOLT-4 leukemia)?
Its TGI is > 100 µM.

And the TGI (SNB-19 CNS)?
Its TGI is > 100 µM.

What about the TGI (OVCAR-4 ovarian) of the same molecule?
Its TGI is > 100 µM.

And the TGI (OVCAR-5 ovarian)?
Its TGI is > 100 µM.

And the TGI (CCRF-CEM leukemia)?
The TGI was > 100 µM.

And the TGI (SK-MEL-5 melanoma)?
Its TGI is > 100 µM.

And the TGI (UO-31 renal)?
Its TGI is > 100 µM.

What about the TGI (M14 melanoma) of the same molecule?
Its TGI is > 100 µM.

What about the TGI (MALME-3M melanoma) of the same molecule?
Its TGI is > 100 µM.
